Measured values: paper PMC9097188, “Design, Synthesis, and Molecular Modeling Studies of a Novel Benzimidazole as an Aromatase Inhibitor” (ACS Omega, 2022)
Where two headings read alike, the source gives them in different places.

Tests used:
[1] = system: MCF-7 (human breast adenocarcinoma cell line); test: MTT cytotoxicity assay, MCF-7; format: cell-based; conditions: mean of four independent studies, read-out: IC50 against MCF-7
Experimental: (§1) In this study, all compounds were tested for antiproliferative activity using an MTT assay with doxorubicin as a control against MCF-7 (human breast adenocarcinoma cell line), A549 (lung carcinoma cell line), HepG2 (human liver carcinoma cell line), HeLa (cervical cell line), and C6 (rat glioma cell line) cell lines. Table 1 summarizes the results of four independent studies as the mean IC50 value (half-maximum inhibitory concentration).
(§2) MTT tests were used to screen the anticancer activities of compounds 5a–i. The MTT assays were carried out as stated previously.[16],[17] The anticancer activity of the final compounds was tested on […]: A549 (lung carcinoma cell line), HeLa (cervical cell line), MCF-7 (human breast adenocarcinoma cell line), HepG2 (human liver carcinoma cell line), C6 (rat glioma cell line), and NIH3T3 […] (mouse embryo fibroblast cell line). In the MTT experiments, doxorubicin and Hoechst 33342 were employed as reference drugs.

[2] = system: HepG2 (human liver carcinoma cell line); test: MTT cytotoxicity assay, HepG2; format: cell-based; conditions: mean of four independent studies, read-out: IC50 against HepG2
Experimental: as §1, §2

[3] = system: A549 (lung carcinoma cell line); test: MTT cytotoxicity assay, A549; format: cell-based; conditions: Homo sapiens, mean of four independent studies, read-out: IC50 against A549
Experimental: as §1, §2

[4] = system: HeLa (cervical cell line); test: MTT cytotoxicity assay, HeLa; format: cell-based; conditions: Homo sapiens, mean of four independent studies, read-out: IC50 against HeLa
Experimental: as §1, §2

human aromatase = target: T1, human aromatase (Homo sapiens, UniProt P11511); test: Aromatase (CYP19A) Inhibitor Screening Kit (Fluorimetric), BioVision; format: biochemical
T1 construct: purchased BioVision
T1 sequence (P11511 1-503): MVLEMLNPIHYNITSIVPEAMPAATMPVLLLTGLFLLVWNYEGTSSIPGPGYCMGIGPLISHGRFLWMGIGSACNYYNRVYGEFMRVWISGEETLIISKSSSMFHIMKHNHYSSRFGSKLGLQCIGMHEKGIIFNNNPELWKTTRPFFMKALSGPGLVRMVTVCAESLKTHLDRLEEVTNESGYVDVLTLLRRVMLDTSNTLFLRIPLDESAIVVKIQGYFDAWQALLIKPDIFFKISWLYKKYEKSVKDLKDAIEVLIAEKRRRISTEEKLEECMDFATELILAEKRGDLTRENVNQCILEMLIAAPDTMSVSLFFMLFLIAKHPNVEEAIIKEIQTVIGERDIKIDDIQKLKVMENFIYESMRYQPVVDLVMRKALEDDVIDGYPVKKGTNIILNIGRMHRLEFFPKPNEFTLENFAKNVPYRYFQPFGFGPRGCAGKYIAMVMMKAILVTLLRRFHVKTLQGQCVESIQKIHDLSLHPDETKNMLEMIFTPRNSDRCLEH
Text: An in vitro fluorescence-based test (Aromatase (CYP19A) Inhibitor Screening Kit (Fluorimetric), BioVision) was used to determine the inhibitory activity of the produced compounds against human aromatase.
The BioVision Aromatase (CYP19A) Inhibitor Screening Kit (Fluorometric) was used to carry out this experiment.

[5] = system: C6 (rat glioma cell line); test: MTT cytotoxicity assay, C6; format: cell-based; conditions: mean of four independent studies, read-out: IC50 against C6
Experimental: as §1, §2

aromatase = conditions: 3D-QSAR data set, IC50 converted to pIC50; SI reference list; cited from earlier work
[6] = fluorimetric kit, compound dissolved in acetonitrile, read-out: IC50 aromatase inhibition
[7] = experimental validation of 3D-QSAR model, read-out: IC50 (aromatase, Table 5)

## O=C(CSc1nnc(-c2ccc3nc(-c4ccc(O)cc4)[nH]c3c2)o1)N1CCN(Cc2ccccc2)CC1 [5a, 2-((5-(2-(4-Hydroxyphenyl)-1H-benzo[d]imidazol-6-yl)-1,3,4-oxadiazol-2-yl)thio)-1-(4-benzylpiperazin-1-yl)ethan-1-one]
[1]; Homo sapiens, MCF7, MTT assay
  IC50: 9.96 ± 0.312 µM
[1]; MTT assay
  IC50: 9.06 ± 0.311 µM
[2]
  IC50: 38.8 ± 0.887 µM
[3]
  IC50: ≥ 100 µM
other
  melting point: 266.5 to 267.9 °C
[4]
  IC50: ≥ 100 µM
Human aromatase; [6]
  IC50: 38.6 ± 1.13 µM
[5]
  IC50: ≥ 100 µM

## O=C(CSc1nnc(-c2ccc3nc(-c4ccc(O)cc4)[nH]c3c2)o1)N1CCN(Cc2ccc(Cl)cc2)CC1 [5b, 2-((5-(2-(4-Hydroxyphenyl)-1H-benzo[d]imidazol-6-yl)-1,3,4-oxadiazol-2-yl)thio)-1-(4-(4-chlorobenzyl)piperazin-1-yl)ethan-1-one]
[1]; Homo sapiens, MCF7, MTT assay
  IC50: 5.13 ± 0.211 µM
[1]; MTT assay
  IC50: 6.55 ± 0.287 µM
[2]
  IC50: 55.2 ± 1.46 µM
[3]
  IC50: ≥ 100 µM
other
  melting point: 155.5 to 157.4 °C
[4]
  IC50: ≥ 100 µM
Human aromatase; [7]
  IC50: 1.48 µM
Human aromatase; [6]
  IC50: 1.47 ± 0.062 µM
[5]
  IC50: 24.7 ± 1.21 µM

## O=C(CSc1nnc(-c2ccc3nc(-c4ccc(O)cc4)[nH]c3c2)o1)N1CCN(Cc2ccc(F)cc2)CC1 [5c, 2-((5-(2-(4-Hydroxyphenyl)-1H-benzo[d]imidazol-6-yl)-1,3,4-oxadiazol-2-yl)thio)-1-(4-(4-fluorobenzyl)piperazin-1-yl)ethan-1-one]
[1]; Homo sapiens, MCF7, MTT assay
  IC50: 6.55 ± 0.287 µM
[1]; MTT assay
  IC50: 5.13 ± 0.211 µM
[2]
  IC50: 17.3 ± 1.1 µM
[3]
  IC50: ≥ 100 µM
other
  melting point: > 400 °C
Human aromatase; [7]
  IC50: 2.51 µM
Human aromatase; [6]
  IC50: 2.51 ± 0.124 µM
[5]
  IC50: 18.2 ± 1.46 µM

## COc1ccc(-c2nc3ccc(-c4nnc(SCC(=O)N5CCN(Cc6ccccc6)CC5)o4)cc3[nH]2)cc1 [5d, 2-((5-(2-(4-Methoxyphenyl)-1H-benzo[d]imidazol-6-yl)-1,3,4-oxadiazol-2-yl)thio)-1-(4-benzylpiperazin-1-yl)ethan-1-one]
[1]; Homo sapiens, MCF7, MTT assay
  IC50: ≥ 100 µM
[2]
  IC50: ≥ 100 µM
[3]
  IC50: ≥ 100 µM
other
  melting point: 172.6 to 174.8 °C
[4]
  IC50: ≥ 100 µM
[5]
  IC50: 88.5 ± 3.41 µM

## COc1ccc(-c2nc3ccc(-c4nnc(SCC(=O)N5CCN(Cc6ccc(Cl)cc6)CC5)o4)cc3[nH]2)cc1 [5e, 2-((5-(2-(4-Methoxyphenyl)-1H-benzo[d]imidazol-6-yl)-1,3,4-oxadiazol-2-yl)thio)-1-(4-(4-chlorobenzyl)piperazin-1-yl)ethan-1-one]
[1]; Homo sapiens, MCF7, MTT assay
  IC50: 45.6 ± 2.11 µM
[2]
  IC50: ≥ 100 µM
[3]
  IC50: ≥ 100 µM
other
  melting point: 138.2 to 140.1 °C
[4]
  IC50: ≥ 100 µM
[5]
  IC50: ≥ 100 µM

## COc1ccc(-c2nc3ccc(-c4nnc(SCC(=O)N5CCN(Cc6ccc(F)cc6)CC5)o4)cc3[nH]2)cc1 [5f, 2-((5-(2-(4-Methoxyphenyl)-1H-benzo[d]imidazol-6-yl)-1,3,4-oxadiazol-2-yl)thio)-1-(4-(4-fluorobenzyl)piperazin-1-yl)ethan-1-one]
[1]; Homo sapiens, MCF7, MTT assay
  IC50: ≥ 100 µM
[2]
  IC50: ≥ 100 µM
[3]
  IC50: ≥ 100 µM
other
  melting point: 133.4 to 135.8 °C
[4]
  IC50: ≥ 100 µM
[5]
  IC50: ≥ 100 µM

## CCOc1ccc(-c2nc3ccc(-c4nnc(SCC(=O)N5CCN(Cc6ccccc6)CC5)o4)cc3[nH]2)cc1 [5g, 2-((5-(2-(4-Ethoxyphenyl)-1H-benzo[d]imidazol-6-yl)-1,3,4-oxadiazol-2-yl)thio)-1-(4-benzylpiperazin-1-yl)ethan-1-one]
[1]; Homo sapiens, MCF7, MTT assay
  IC50: ≥ 100 µM
[2]
  IC50: ≥ 100 µM
[3]
  IC50: ≥ 100 µM
other
  melting point: 184.4 to 186.8 °C
[4]
  IC50: ≥ 100 µM
[5]
  IC50: ≥ 100 µM

## CCOc1ccc(-c2nc3ccc(-c4nnc(SCC(=O)N5CCN(Cc6ccc(Cl)cc6)CC5)o4)cc3[nH]2)cc1 [5h, 2-((5-(2-(4-Ethoxyphenyl)-1H-benzo[d]imidazol-6-yl)-1,3,4-oxadiazol-2-yl)thio)-1-(4-(4-chlorobenzyl)piperazin-1-yl)ethan-1-one]
[1]; Homo sapiens, MCF7, MTT assay
  IC50: ≥ 100 µM
[2]
  IC50: ≥ 100 µM
[3]
  IC50: ≥ 100 µM
other
  melting point: 177.5 to 178.4 °C
[4]
  IC50: ≥ 100 µM
[5]
  IC50: ≥ 100 µM

## COc1cccc2c1C(=O)c1c(O)c3c(c(O)c1C2=O)C[C@@](O)(C(=O)CO)C[C@@H]3O[C@H]1C[C@H](N)[C@H](O)[C@H](C)O1 [Dox., doxorubicin]
[5]
  IC50: 28.7 ± 1.23 µM

## Cc1ccc(S(=O)(=O)Nc2ccc3[nH]ccc3c2)cc1 [compound 63]
aromatase
  Experimental pIC50: 6.796

## O=S(=O)(Cc1ccccc1)NCCc1c[nH]c2ccccc12 [compound 64]
aromatase
  Experimental pIC50: 6.125

## O=S(=O)(NCCc1c[nH]c2ccccc12)c1ccccc1 [compound 65]
aromatase
  Experimental pIC50: 6.699

## Cc1ccc2[nH]c(-c3ccc(-c4nnc5n4N=C(c4ccc(Cl)cc4)CS5)cc3)nc2c1 [compound 79]
aromatase
  Experimental pIC50: 5.927

## Cc1ccc2nc(-c3ccc(-c4nnc5n4N=C(c4ccc(F)cc4)CS5)cc3)[nH]c2c1 [compound 80]
aromatase
  Experimental pIC50: 5.906

## Cc1ccc2nc(-c3ccc(-c4nnc5n4N=C(c4ccc(C#N)cc4)CS5)cc3)[nH]c2c1 [compound 81]
aromatase
  Experimental pIC50: 5.871

## Cc1ccc2nc(-c3ccc(-c4nnc5n4N=C(c4ccc(F)cc4F)CS5)cc3)[nH]c2c1 [compound 82]
aromatase
  Experimental pIC50: 7.432

## Fc1ccc(C2=Nn3c(nnc3-c3ccc(-c4nc5ccccc5[nH]4)cc3)SC2)cc1 [compound 101]
aromatase
  Experimental pIC50: 5.765

## Fc1ccc(C2=Nn3c(nnc3-c3ccc(-c4nc5ccc(Cl)cc5[nH]4)cc3)SC2)cc1 [compound 102]
aromatase
  Experimental pIC50: 5.643

## N#Cc1ccc(C2=Nn3c(nnc3-c3ccc(-c4nc5ccc(Cl)cc5[nH]4)cc3)SC2)cc1 [compound 103]
aromatase
  Experimental pIC50: 5.806

## Cc1[nH]c2ccccc2c1C=NNc1cccc(F)c1 [compound 104]
aromatase
  Experimental pIC50: 4.939

## Cc1[nH]c2ccccc2c1C=NNc1cc(F)cc(F)c1 [compound 105]
aromatase
  Experimental pIC50: 4.886

## Cc1[nH]c2ccccc2c1C=NNc1cccc(Cl)c1 [compound 106]
aromatase
  Experimental pIC50: 4.718

## Cc1[nH]c2ccccc2c1C=NNc1ccc(Cl)cc1 [compound 107]
aromatase
  Experimental pIC50: 5.062

## OCc1cn(-c2ccccc2Cl)c2ccccc12 [compound 108]
aromatase
  Experimental pIC50: 7.268

## OCc1cn(-c2ccccc2F)c2ccccc12 [compound 109]
aromatase
  Experimental pIC50: 6.907

## OCc1cn(-c2cccc(F)c2)c2ccccc12 [compound 110]
aromatase
  Experimental pIC50: 7.086

## N#Cc1ccc(-n2cc(CO)c3ccccc32)cc1 [compound 111]
aromatase
  Experimental pIC50: 7.301

## Clc1ccccc1-n1cc(Cn2ccnc2)c2ccccc21 [compound 112]
aromatase
  Experimental pIC50: 6.762

## Clc1ccccc1-n1cc(Cn2cncn2)c2ccccc21 [compound 113]
aromatase
  Experimental pIC50: 5.456

## Fc1ccccc1-n1cc(Cn2ccnc2)c2ccccc21 [compound 114]
aromatase
  Experimental pIC50: 6.377

## Fc1cccc(-n2cc(Cn3ccnc3)c3ccccc32)c1 [compound 115]
aromatase
  Experimental pIC50: 5.513

## N#Cc1ccc(-n2cc(Cn3ccnc3)c3ccccc32)cc1 [compound 116]
aromatase
  Experimental pIC50: 5.851
